Patent US5637725A, “Substituted aryl and cycloalkyl imidazolones; a new class of GABA brain receptor ligands” (Neurogen Corporation, priority 1995, dated 1997)

molecular target: GABAa receptor; test: [3H]-RO15-1788 (Flumazenil) binding assay for GABAa receptor activity, rat cortical tissue; settings: 0.5 nM 3H-RO15-1788; rat cortical tissue homogenate; 30 min at 4° C.; nonspecific binding with 1.0 mM diazepam
Protocol: The pharmaceutical utility of compounds of this invention are indicated by the following assay for GABAa receptor activity.
Assays are carried out as described in Thomas and Tallman (J. Bio. Chem. 156: 9838-9842, J. Neurosci. 3: 433-440, 1983). Rat cortical tissue is dissected and homogenized in 25 volumes (w/v) of 0.05M Tris HCl buffer (pH 7.4 at 4° C.). The tissue homogenate is centrifuged in the cold (4°) at 20,000×g for 20'. The supernatant is decanted and the pellet is rehomogenized in the same volume of buffer and again centrifuged at 20,000×g. The supernatant is decanted and the pellet is frozen at -20° C. overnight. The pellet is then thawed and rehomogenized in 25 volume (original wt/vol) of buffer and the procedure is carried out twice. The pellet is finally resuspended in 50 volumes (w/vol of 0.05M Tris HCl buffer (pH 7.4 at […]).
Incubations contain […] of radioligand 0.5 nM (^3 H-RO15-1788 [^3 H-Flumazenil] specific activity 80 Ci/mmol), drug or blocker and buffer to a total volume of […]. Incubations are carried for 30 min at 4° C. then are rapidly filtered through GFB filters to separate free and bound ligand. Filters are washed twice with fresh 0.05M Tris HCl buffer (pH 7.4 at 4° C.) and counted in a liquid scintillation counter. […] diazepam is added to some tubes to determine nonspecific binding. Data are collected in triplicate determinations, averaged and % inhibition of total specific binding is calculated. Total Specific Binding=Total-Nonspecific. In some cases, the amounts of unlabeled drugs is varied and total displacement curves of binding are carried out. Data are converted to a form for the calculation of IC50 and Hill Coefficient (nH).

Row | SMILES | Ki
1 | O=c1[nH]c2c(n1-c1nc3ccc(F)c(F)c3o1)CCCCC2 [Compound 1] | 3 nM
2 | O=c1[nH]c2c(n1-c1nc3ccc(F)cc3o1)CCCCC2 [Compound 2] | 4.6 nM
3 | O=c1[nH]c2cc(F)ccc2n1-c1nc2cccc(F)c2o1 [Compound 3, 3-(2-(7-fluorobenzoxazyl))-6-fluorobenzimidazol-2-(1H)-one] | 14 nM
4 | O=c1[nH]c2cc(F)ccc2n1-c1nc2ccc(F)cc2o1 [Compound 4, 3-(2-(6-fluorobenzoxazyl))-6-fluorobenzimidazol-2-(1H)-one] | 5 nM
5 | O=c1[nH]c2c(n1-c1nc3ccc(F)c(F)c3o1)CCCC2 [Compound 5] | 21 nM
6 | COc1ccc2oc(-n3c4c([nH]c3=O)CCCC4)nc2c1 [Compound 6] | 81 nM

tested on: GABA receptor; test: not given; settings: brain membranes; cited from earlier work

Row | SMILES | blockade of enhancement of benzodiazepine binding by GABA agonists
7 | CN1CCc2cc3c(cc2[C@H]1[C@@H]1OC(=O)c2c1ccc1c2OCO1)OCO3 [(+) bicuculline] | blocked
8 | CN1CCc2cc3c(cc2[C@@H]1[C@H]1OC(=O)c2c1ccc1c2OCO1)OCO3 [(-) bicuculline] | much less active
